Earlier results, collected in patent US5670479A, “α-ketoamide derivatives as inhibitors of thrombosis” (Corvas International, Inc., priority 1994, dated 1997).
Values after ≈ are worked out from the molar mass of the structure shown.

Key:
[1] = target: T1, microsomal aminopeptidase (Sus scrofa, UniProt P15145); settings: Ocain et al. 1992; cited from earlier work
T1 sequence (P15145 1-963): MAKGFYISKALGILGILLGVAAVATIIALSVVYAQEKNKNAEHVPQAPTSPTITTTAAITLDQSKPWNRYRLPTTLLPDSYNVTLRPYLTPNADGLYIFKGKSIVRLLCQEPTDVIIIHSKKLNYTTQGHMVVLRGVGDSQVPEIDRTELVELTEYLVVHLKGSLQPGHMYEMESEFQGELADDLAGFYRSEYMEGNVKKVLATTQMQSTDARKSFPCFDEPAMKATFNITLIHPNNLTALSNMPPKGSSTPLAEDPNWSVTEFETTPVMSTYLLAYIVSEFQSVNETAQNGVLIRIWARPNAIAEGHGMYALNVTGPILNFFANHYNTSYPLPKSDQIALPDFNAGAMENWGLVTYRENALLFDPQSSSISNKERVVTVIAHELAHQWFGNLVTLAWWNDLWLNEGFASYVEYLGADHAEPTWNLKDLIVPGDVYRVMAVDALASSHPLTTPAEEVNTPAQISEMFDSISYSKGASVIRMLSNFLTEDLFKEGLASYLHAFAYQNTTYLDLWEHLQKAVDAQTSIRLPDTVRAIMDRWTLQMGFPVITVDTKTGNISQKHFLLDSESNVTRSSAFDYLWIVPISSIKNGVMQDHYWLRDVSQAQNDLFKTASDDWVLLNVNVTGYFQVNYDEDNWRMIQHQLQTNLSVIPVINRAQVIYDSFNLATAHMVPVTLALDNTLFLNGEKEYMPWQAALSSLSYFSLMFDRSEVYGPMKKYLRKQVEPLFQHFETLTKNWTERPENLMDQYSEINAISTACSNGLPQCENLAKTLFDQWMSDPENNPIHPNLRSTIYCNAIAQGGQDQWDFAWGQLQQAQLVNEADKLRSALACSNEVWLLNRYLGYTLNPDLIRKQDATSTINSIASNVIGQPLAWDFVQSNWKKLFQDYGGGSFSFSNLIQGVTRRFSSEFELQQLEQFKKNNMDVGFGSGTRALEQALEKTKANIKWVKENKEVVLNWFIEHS

[2] = test system: baboons; settings: baboon; dose which gives a 50% inhibition of platelet deposition; other direct antithrombins evaluated earlier in this model; cited from earlier work
[3] = test system: baboons; settings: baboon, other direct antithrombins evaluated earlier in this model, cited from earlier work; for Antihemostatic Effects APTT: control 32 sec; for Antihemostatic Effects Bleeding Time: control 4 min
[4] = test system: thrombin; settings: Fusetani et al.; cited from earlier work
[5] = target: thrombin (Homo sapiens, UniProt P00734); settings: reported in literature; cited from earlier work

Row | Compound | Antithrombotic Effects ED50 [2] [nmol/kg/min] | Antihemostatic Effects APTT [3] [s] | Antihemostatic Effects Bleeding Time [3] [min] | other results
1 | NC(=O)C(=O)C(N)Cc1ccccc1 (centres unmarked) [3-Amino-2-oxo-4-phenylbutanoic acid amide] |  |  |  | Ki [1]: 2.5 µM
2 | CC1CNc2c(cccc2S(=O)(=O)N[C@@H](CCCNC(=N)N)C(=O)N2CC[C@@H](C)C[C@@H]2C(=O)O)C1 (stereo partly drawn) [Argatroban, 2R,4R-4-methyl-1-[N-2-(3-methyl-1,2,3,4-tetrahydro-8-quinolinesulfonyl)-L-argininal]-2-piperdinecarboxylic acid] | > 800 | > 300 |  | 
3 | N=C(N)NCCC[C@@H]1NC(=O)[C@@H]2CCCN2C(=O)[C@@H](NC=O)CNC(=O)/C=C/[C@H](Cc2ccc(O)cc2)NC(=O)[C@@H](Cc2ccccc2)NC(=O)C1=O [Cyclotheonamide A] |  |  |  | IC50 (thrombin) [4]: 76 µg/mL (≈ 104 µM)
4 | N=C(N)NCCC[C@@H](C=O)NC(=O)[C@@H]1CCCN1C(=O)[C@H](N)Cc1ccccc1 [dF-P-R-al, D-phenylalanyl-prolyl-argininal] | 250 | 145 | 14 | 
5 | NC(N)=NCCC[C@H](NC(=O)[C@@H]1CCCN1C(=O)[C@H](N)Cc1ccccc1)B(O)O [dF-P-boroR, D-phenyalanyl-prolinyl-boroarginine] | 25 | 95 | 12 | 
6 | N-acetyl-D-Phe-Pro Arg-[yC(=O)--CH2 ]--CH2 --CH2 --CH2 --(C=O)-Gln-Ser-His-Asn-Asp-Gly-Asp-Phe-Glu-Glu-Ile-Pro-Glu-Glu-Tyr-Leu-Gln |  |  |  | Ki [5]: 0.00014 µM
